Measurements reported in US11395857B2, “Radiolabeled melanocortin 1 receptor-specific alpha-melanocyte-stimulating hormone analogues for imaging or therapy” (PROVINCIAL HEALTH SERVICES AUTHORITY, priority 2018, dated 2022).

Columns and labels:
[1] = In vivo stability in mouse urine at 1 h p.i. (radio-HPLC); set-up: species or system C57BL/6J mice
Procedure: All animal experiments were conducted in according to the guidelines established by Canadian Council on Animal Care and approved by Animal Ethics Committee of the University of British Columbia. Mice were housed under pathogen-free conditions and kept on twelve hours light and twelve hours dark cycle in the Animal Research Centre, BC Cancer Research Centre, Vancouver, Canada. C57BL/6J mice were anesthetized by inhalation with 2% isoflurane in 2.0 L/min of oxygen, and approximately 4-6 MBq of [^68Ga]Ga-CCZ01099 or [^68Ga]Ga-CCZ01048 was injected intravenously. The mice were allowed to recover and roam freely in their cages. At 1 h post-injection (p.i.), the mice were euthanized by CO2 inhalation and their urine was collected and analyzed on HPLC for metabolite using the conditions described above. In vivo urine stability of [^68Ga]Ga-CCZ01099 and [^68Ga]Ga-CCZ01048 were 34.0±10.4% and ≥98.0% (n≥3), respectively.
The in vivo stability tests in mouse urine were performed as described in Example 1. […] With systematic reduction in the number of N-methylations for the αMSH analogues, a decrease in in vivo stability was observed.

B16-F10 tumours = settings: Zhang et al., 2017 Theranostics; cited from earlier work
B16F10 cells = assay: In vitro competition binding assay on B16-F10 cells vs 125I-[Nle4,D-Phe7]-alpha-MSH; set-up: species or system Mus musculus; settings: natGa-coupled peptides
Procedure: The B16-F10 melanoma cell line (Mus musculus) used in the tumor model was obtained commercially from ATTC (CRL-6475). Cells were cultured in Dulbecco's Modified Eagle's Medium (DMEM, StemCell Technologies) supplemented by 10% FBS, 100 U/mL penicillin and 100 μg/mL streptomycin at 37° C. in a humidified incubator containing 5% CO2. Cells grown to roughly 90% confluence were washed with sterile phosphate-buffered saline (lx PBS, pH 7.4), followed by trypsinization. For tumour implantation, C57BL/6J mice were anesthetized by inhalation with 2% isoflurane in 2.0 L/min of oxygen, 2×10^6 B16-F10 cells were inoculated subcutaneously on right dorsal flank. Mice were imaged or used in biodistribution studies once the tumour reached 6-8 mm in diameter.
In vitro competitive binding assays were performed using B16-F10 cells and the cell culture method described in Example 1. 500,000 cells/well were seeded onto a 24 well poly-D-lysine coated plate (Corning) overnight. Growth media was removed, and reaction buffer containing 4.8 mg/mL HEPES, […] penicillin/[…] and 2 mg/mL BSA was added, and allowed to incubate with cells at 37° C. for at least an hour. Peptide of interest and ^125I-[Nle^4, D-Phe^7]-alpha-MSH (Perkin Elmer) were added to each well. The binding of ^125I-[Nle^4, D-Phe^7]-alpha-MSH was competed by non-radioactive gallium coupled CCZ01103, CCZ01104, CCZ01105, CCZ01106 or CCZ01114 at increasing concentrations from 0.5 pmol/mL to […]. The reaction mixture was incubated at 25° C. with moderate shaking for 1 h. After the incubation, the reaction mixture was removed, and cells were washed with ice-cold PBS twice. 0.25% Trypsin solution was used to harvest the cells and radioactivity was measured using a Wallac WIZARD2 gamma counter (Perkin Elmer).

SK-MEL-1 human melanoma = assay: SPECT/CT imaging of mice bearing SK-MEL-1 human melanoma; format: in vivo, NRG mice; settings: 24 h p.i.
Procedure: SPECT/CT imaging experiments were conducted using the same conditions as described in Example 3. […] (FIG. 6).

SMILES | In vivo urine stability, intact tracer [1] [%] | Thyroid uptake on PET images (B16-F10 tumours) | Binding affinity (comparison among the five analogues) (B16F10 cells) | Ki (B16F10 cells; n ≥ 3, read-out: Inhibition constants (Ki) on B16F10 cells) [nM] | Tumour uptake / retention in SPECT images (SK-MEL-1 human melanoma)
CCCC[C@H](NC(=O)CN1CCC(NC(=O)CN2CCN(CC(=O)O)CCN(CC(=O)O)CCN(CC(=O)O)CC2)CC1)C(=O)N[C@H]1CC(=O)NCCCC[C@@H](C(N)=O)NC(=O)[C@H](Cc2c[nH]c3ccccc23)NC(=O)[C@H](CCCNC(=N)N)NC(=O)[C@@H](Cc2ccccc2)NC(=O)[C@H](Cc2c[nH]cn2)NC1=O [[^68Ga]Ga-CCZ01048, metal not drawn, reference compound] | ≥ 98.0 | thyroid uptake was clearly observed | – | – | –
CCCC[C@H](NC(=O)CN1CCC(NC(=O)CN2CCN(CC(=O)O)CCN(CC(=O)O)CCN(CC(=O)O)CC2)CC1)C(=O)N[C@H]1CC(=O)NCCCC[C@@H](C(N)=O)N(C)C(=O)[C@H](Cc2c[nH]c3ccccc23)NC(=O)[C@H](CCCNC(=N)N)N(C)C(=O)[C@@H](Cc2ccccc2)NC(=O)[C@H](Cc2c[nH]cn2)NC1=O [CCZ01106, DOTA-Pip-Nle-cyclo[Asp-His-D-Phe-(N-Me-Arg)-Trp-(N-Me-Lys)]—NH2] | 82.5±1.8 | – | highest binding affinity | 1.5 ± 0.1 | –
CCCC[C@H](NC(=O)CN1CCC(NC(=O)CN2CCN(CC(=O)O)CCN(CC(=O)O)CCN(CC(=O)O)CC2)CC1)C(=O)N[C@H]1CC(=O)NCCCC[C@@H](C(N)=O)NC(=O)[C@H](Cc2c[nH]c3ccccc23)NC(=O)[C@H](CCCNC(=N)N)N(C)C(=O)[C@@H](Cc2ccccc2)NC(=O)[C@H](Cc2c[nH]cn2)NC1=O [CCZ01114, DOTA-Pip-Nle-cyclo[Asp-His-D-Phe-(N-Me-Arg)-Trp-Lys]-NH2] | – | – | highest binding affinity | – | –
CCCC[C@H](NC(=O)CN1CCC(NC(=O)[C@H](CCCCNC(=O)CN2CCN(CC(=O)O)CCN(CC(=O)O)CCN(CC(=O)O)CC2)NC(=O)CNC(=O)CCCc2ccc(I)cc2)CC1)C(=O)N[C@H]1CC(=O)NCCCC[C@@H](C(N)=O)N(C)C(=O)[C@H](Cc2c[nH]c3ccccc23)NC(=O)[C@H](CCCNC(=N)N)N(C)C(=O)[C@@H](Cc2ccccc2)NC(=O)[C@H](Cc2c[nH]cn2)NC1=O [CCZ01148] | – | – | – | – | showed improved the tumour retention
